Reference: paper PMC5321741, “Arylmethylamino steroids as antiparasitic agents” (Nature Communications, 2017)
Like-named read-outs stand apart in the source and are kept apart here.

What was measured:
haem = experiment: ESI-MS collision-induced dissociation of haem adducts; type: binding; details: 50 µM haem and 50 µM substrate
Description: Compound Molar Adduct DV50 Bottom Dissociation mass [Haem+S] (V) plateau Constant
Supplementary Table 7. ESI-MS-CID data (m/z, calculated DV50 = dissociation voltage at 50% and % bottom plateau) of the [haematin-drug]+ adducts and dissociation constants (KD, µM) of the haematin-drug complexes measured with absorption spectrophotometric titrations.
Conditions: 50 µM haem and 50 µM substrate in H2O/CH3CN (5/95) + 0.1% formic acid.
Stability responses of the haem substrate adduct were obtained via ESI-CID experiments.
Positive mode; fragmentor voltage from 20 V to 400 V with 20 V increments. […]
- 41/120 g), and complete dissolution was achieved using an ultrasonic bath. All solutions were protected from daylight to avoid any photochemical degradation. All the physiochemical measurements were carried out at 25.0(2) °C. […]
Electrospray mass spectrometric measurements stopping point
Electrospray mass spectra of the haem complexes were obtained with an Agilent Technologies 6120 quadrupole equipped with an electrospray (ESI) interface. For

[1] = test system: P. falciparum (strain 3D7); details: cited from earlier work
P. falciparum strain Dd2 = test system: P. falciparum strain Dd2; design: method as in PMID 24348249; details: chloroquine-resistant strain Dd2; cited from earlier work
P. falciparum NF54 = experiment: IC50 speed assay; type: cell-based, Plasmodium falciparum; details: Plasmodium falciparum
Description: To assess the rapidity of growth inhibition induced by the steroid compounds, the so-called IC50 speed assay[16] was conducted for compound 1o on P. falciparum NF54 (Fig. 2a,b).

[2] = molecular target: haem (FeIIIPPIX, π-π dimer); experiment: spectrophotometric titration of haematin π-π dimer; type: binding; details: absorption spectrophotometric titration, pH 7.5; read-out: Dissociation Constant KD of haematin-drug complex
[3] = test system: hGrx1-roGFP2 in P. falciparum 3D7; experiment: cytosolic glutathione redox sensor in parasites; type: cell-based, Plasmodium falciparum; details: 100 nM, 24 h
Description: To further study the mechanism of action of the steroid compounds and evaluate the potential involvement of redox stress, compound 1o was tested in cell culture on the chloroquine-sensitive P. falciparum 3D7 strain expressing the cytosolic glutathione redox sensor hGrx1-roGFP2 (Supplementary Note 2). […]
signals at 405/475 nm were calculated and plotted against time and/or concentration of compound 1o or redox active compounds. Data from three independent experiments were […]
100 µM for 4 h and 24 h incubations. Transfection of the Pf3D7 strain with the redox sensor was carried out, and the parasites were cultured as described under constant drug pressure with 5 nM WR99210 (Jacobus Pharmaceuticals, New Jersey, USA).45,46 P. falciparum trophozoites were enriched via magnet separation.47 Parasitemia was counted by using Giemsa-stained blood smears. The IC50 of compound 1o on P. falciparum 3D7 asexual blood stages was verified to be about 5 nM in an additional 72 h [3H] incorporation assay45 directly before the experiment. The effect of compound 1o on P. falciparum was investigated in 4 h and 24 h incubations. For 4 h experiments, trophozoite stage parasites (26-30 h post invasion) of 3D7[hGrx1-roGFP2] (6-8% parasitemia) were magnetically enriched (Miltenyi Biotec, Germany), counted by using the improved Neubauer hemocytometer (Brand GmbH, Germany), and returned to cell culture (at 0.5 x 10^6 trophozoites/µl) for at least 1 h to recover.
1.0 x 10^6 cells in 100 µl cell culture medium were placed into LoBind tubes (Eppendorf) for 4 h incubation experiments. The parasites were treated with compound 1o at 50 x, and 100 x IC and with mefloquine (MQ) as a standard antimalarial drug at 1 µM (IC = 8 nM)45 for 4 h […]
for 15 min at 37 °C. For 24 h experiments, a 5 ml culture (6-8% parasitemia) of ring stage parasites (6-10 h post invasion) was treated with compound 1o at 4 x, 10 x, 20 x IC50 and with 100 nM MQ. Prior to enrichment, cysteines were blocked with 2 mM NEM. For 4 h and 24 h experiments, cells were washed after incubation with pre-warmed Ringer’s solution […]
Hepes, 1 mM NaH2PO4, pH 7.4) and were seeded onto poly-L-lysine-coated µ-slides VI (Ibidi, Martinsried, Germany). A Leica confocal system TCS SP5 inverted microscope equipped with the objective HCX PL APO 63.0x1.30 GLYC 37 °C UV connected to a 37 °C temperature chamber was used. The argon laser power was set to 20%; scanning was performed at 400 Hz frequency and at a 512 × 512 pixel resolution. The smart gain and […]
smart offset were 950 V and -0.9%, respectively. With a sequential scan, we excited the sensor at 405 nm and at 488 nm and detected emissions at 500-550 nm. Laser intensity for both lines was adjusted to match the full dynamic range of the probe to the dynamic range of the detector (405 nm: 12%, 488 nm: 4%). Autofluorescence images were simultaneously taken at ex 405 nm / em 430-450 nm and individually defined together with the background for every image, but no fluorescence signal could be detected. All experiments included non- […]
and 10 mM DTT (2 min incubation), respectively, prior to blocking with NEM. Only parasites showing fluorescent signals at both 405 and 488 nm excitation and an intact host cell were chosen for analysis. Each experiment was carried out three times. At least 10 parasites were analyzed, resulting in at least 30 experimental values per incubation. The Leica LAS AF Lite software for fluorescence analysis was used. The 405/488 nm ratio was calculated. The obtained ratio values were normalized to the control ratio value, which was set to 100. The graphs were plotted using the GraphPad Prism 5 software (San Diego, CA, USA). One way-ANOVA test with 95% confidence intervals with the Dunnett’s Multiple Comparison Test was applied for statistical analysis of significance (*, p < 0.05; **, p < 0.01; ***, p < 0.001). […]
with 1 µM MQ. 24 h incubation (Supplementary Figure 8 panel B) with compound 1o resulted in a higher increase of the fluorescence ratio in a concentration-dependent manner. […]

[4] = test system: Staphylococcus aureus JMRC:ST:33793 (multi-resistant); experiment: agar diffusion inhibition zone test; type: cell-based; details: Staphylococcus aureus, MRSA; 1o, 2o 1,000 µg/ml in DMSO; ciprofloxacin 5 µg/ml; solvent DMSO 12P; read-out: inhibition zone diameter, MRSA Staph. aureus (R9)
Description: (§1) The following organisms were tested at the Hans Knöll Institute in Jena, for their susceptibility to the compounds 1o and 2o: Bacillus subtilis JMRC:STI:10880, Staphylococcus aureus JMRC:ST:10760, Escherichia coli JMRC:ST:33699, Pseudomonas aeruginosa JMRC:ST:33772, Pseudomonas aeruginosa JMRC:ST:337721, Staphylococcus aureus JMRC:ST:33793 (multi-resistant), Enterococcus faecalis JMRC:ST:33700 (Vancomycin-resistant), Mycobacterium vaccae JMRC:STI:10670, Sporobolomyces salmonicolor (Basidiomycetes yeast) JMRC:ST:35974, Candida albicans (Ascomycetes yeast) JMRC:STI:25000, Penicillium notatum JMRC:STI:50164.
(§2) The bacteria were propagated in Mueller Hinton Broth (Oxoid)[49]. Yeast was propagated in YPD (yeast extract peptone dextrose): 1% yeast extract, 10 g; 2% peptone, 20 g; 2% agar, 20 g; 2% dextrose (glucose), 20 g; Sigma-Y1375. All bacteria and yeast suspensions were freshly made. The cultures were incubated at 37 °C for 16 h. Afterwards, the bacteria concentration from each culture was determined, and 34 ml of nutrient agar was loaded with 10^7 cells. These cultures were stored at 6-8 °C and could be used for seven days for the preparation of test plates. 34 ml of nutrient agar was liquefied and inoculated with the calculated amount of inoculum bacteria suspension at 48–50 °C, a temperature suitable for vegetative forms of bacteria. The inoculated nutrient media (34 ml each) were immediately poured into the prepared test plates (3 mm layer). With a punching device, 12 holes per test plate were punched out. For inhibiting bacterial growth, ciprofloxacin was used as a reference substance. The test substances were dissolved in distilled water, and 5 μg ml^−1 and 50 μl was added to each bacterial culture. For inhibition of fungal growth, amphotericin B served as the reference substance. The test substances were diluted to 10 μg ml^−1 in DMSO/methanol; 50 μl was added to each culture.
(§3) Configuring the test plate; volumes/punched hole: 50 μl; test solutions/test plate: 1 × 50 μl reference substance. Test plates were cultivated for 18 h at 37 °C. Analysis: Reading the inhibition zones (IZ): As IZ, the zone in which no growth can be determined with the naked eye is measured; the tiniest colonies on the edge of the inhibition zone were therefore not taken into consideration. The diameter (φ) of the IZ is measured in mm. The analysis of IZ φ is carried out internationally with the help of statistic procedures, especially regression analysis. With each test approach, the reference substance was brought along as a control; if there were deviations from allowed IZ φ, the test was repeated.
(§4) The inhibition of bacterial growth was determined using bacterial cultures grown in Müller-Hinton Bouillon, which was configured at barely visible opacity with the McFarland Standard Nr. 0.5, which indicates a bacterial density of 10^8 ml^−1. This bacterial suspension was diluted with Müller-Hinton Bouillon using 2-fold dilution series in the agar diffusion test.
(§5) Analysis: The growth in the inhibition zones around the holes containing active substances is thereby compared with the growth in the growth control (no active substance). Bacterial growth was determined according to four measurements: p=presence of colonies in the inhibition zone, P=presence of many colonies in the inhibition zone, A=indication of inhibition, F=facilitation.

[5] = test system: Mycobacterium vaccae JMRC:STI:10670; experiment: agar diffusion inhibition zone test; type: cell-based; details: Mycolicibacterium vaccae; 1o, 2o 1,000 µg/ml in DMSO; ciprofloxacin 5 µg/ml; solvent DMSO 13P; read-out: inhibition zone diameter, Mycobac. vaccae (M4)
Description: as §1, §2, §3, §4, §5

[6] = test system: Enterococcus faecalis JMRC:ST:33700 (Vancomycin-resistant); experiment: agar diffusion inhibition zone test; type: cell-based; details: 1o, 2o 1,000 µg/ml in DMSO; ciprofloxacin 5 µg/ml; solvent DMSO 12P
Description: as §1, §2, §3, §4, §5

[7] = test system: Staphylococcus aureus JMRC:ST:10760; experiment: agar diffusion inhibition zone test; type: cell-based; details: Staphylococcus aureus; 1o, 2o 1,000 µg/ml in DMSO; ciprofloxacin 5 µg/ml; solvent DMSO 12P; read-out: inhibition zone diameter, Staphylococcus aureus (B3)
Description: as §1, §2, §3, §4, §5

[8] = test system: Bacillus subtilis JMRC:STI:10880; experiment: agar diffusion inhibition zone test; type: cell-based; details: Bacillus subtilis; 1o, 2o 1,000 µg/ml in DMSO; ciprofloxacin 5 µg/ml; solvent DMSO 12P; read-out: inhibition zone diameter, Bacillus subtilis (B1)
Description: as §1, §2, §3, §4, §5

[9] = test system: Pseudomonas aeruginosa JMRC:ST:33772; experiment: agar diffusion inhibition zone test; type: cell-based; details: Pseudomonas aeruginosa; 1o, 2o 1,000 µg/ml in DMSO; ciprofloxacin 5 µg/ml; solvent DMSO 13P; read-out: inhibition zone diameter, Pseudomonas aeruginosa JMRC:ST:33772 (B7)
Description: as §1, §2, §3, §4, §5

[10] = same methods (72 h 3H-hypoxanthine incorporation assay), read-out: IC50 on 3D7

In the case of `CCN(CC)CCCC(C)Nc1ccnc2cc(Cl)ccc12` (stereo not drawn) [chloroquine], the “DV50 (dissociation voltage at 50%) of haem adduct” value (haem; ESI-CID, 20 V to 400 V) is listed as 201 V, the “Bottom plateau (adduct remaining at 400 V)” value (haem; fragmentor voltage 400 V) is listed as 0% and the IC50 [1, 10] is listed as 8.6 nM. The IC50 (P. falciparum strain Dd2) was 90.2 nM, the IC50 (P. falciparum NF54; NF54, 24 h, read-out: IC50 24 h) was 8.3 ± 2.1 nM and the IC50 (P. falciparum NF54; NF54, 48 h, read-out: IC50 48 h) was 7.5 ± 0.9 nM. It also gave an IC50 (P. falciparum NF54; NF54, 72 h, read-out: IC50 72 h) of 7.4 ± 1.1 nM and a Kd [2] of 1300 nM.

In the case of `C[C@@H]1CC[C@H]2[C@@H](C)C(=O)O[C@@H]3O[C@@]4(C)CC[C@@H]1[C@]32OO4` [artemisinin], the IC50 [1, 10] is listed as 17.3 nM and the IC50 (P. falciparum strain Dd2) is listed as 20.4 nM.

For `OC(c1cc(C(F)(F)F)nc2c(C(F)(F)F)cccc12)C1CCCCN1` (stereo not drawn) [mefloquine, reference compound], the “change of 405/488 nm fluorescence ratio” value [3] is listed as 1.5 fold and the IC50 ([1]; read-out: IC50 of mefloquine) is listed as 8 nM.

Work on `O=C(O)c1cn(C2CC2)c2cc(N3CCNCC3)c(F)cc2c1=O` [Ciprofloxacin, ciprofloxacin, reference compound] yielded a zone of inhibition at 5 µg/mL [4] of 0 mm, a zone of inhibition at 5 µg/mL [5] of 21 mm and an inhibition zone diameter, VRSA Enteroc. faecalis (R10) [6] of 16 mm. The zone of inhibition at 5 µg/mL [7] was 19 mm, the zone of inhibition at 5 µg/mL [8] was 31 mm and the zone of inhibition at 5 µg/mL [9] was 27 mm.
